# Measurements published in patent US20240343699A1, “DERIVATIVES OF SUBSTITUTED MORPHOLINES AND USES THEREOF” (Supernus Pharmaceuticals, Inc., priority 2023, published 2024).
# Values joined by “and” are separate entries in the source; they are usually repeats but may differ in a detail not shown here. Identical values can stand only once.
# Columns and labels:
# [1] = Metabolic stability in human liver S9; type: in vitro ADME; settings: human liver S9, 1 μM
# Method: (§1) Incubation Buffer (PBK): 50 mM potassium phosphate buffer was prepared from 1 M potassium phosphate buffer, pH 7.2. […] The dilution of […] was prepared by 90% methanol/10% DMSO, then 10 μM working solutions were prepared by diluting the 0.1 mM intermediates with 50 mM PBK. […] Prior to use, the stock solutions were brought to room temperature and thoroughly mixed. […] Cofactors Solutions: the mixture of cofactors solution was made at 10 mM of NADPH and 10 mM of UDPGA in PBK buffer.
# (§2) The incubation was carried out in 96-well plates. The liver S9 working solutions were added to 96-well plates (80 μL/well) in duplicate. […] Reaction was initiated by adding cofactor mixture 10 μL/well. The plates were incubated at 37° C. in a water bath with shaking. […] The final organic solvent content in the incubation was ≤1%.
# (§3) At specified time points, i.e., 5, 10, 20, 30 and 60 minutes, NCF60 (without adding NADPH (Nicotinamide-adenine dinucleotide phosphate, reduced form) and UDPGA (Uridine 5′-diphosphoglucuronic acid trisodium salt) replaced with PBK buffer reaction was stopped by adding three volumes of stop solution. The time zero (To) samples were prepared by adding three volumes of stop solution to liver S9 samples, followed by addition of test article or control, and cofactor mixture solution 10 μL/well.
# (§4) Subsequently, 100 μL of supernatant.
# (§5) Positive controls: 7-ethoxycoumarin and 7-hydroxycoumarin.
# [2] = In vitro stability in human plasma; type: in vitro ADME; settings: human plasma, 2.0 μM
# Method: Test Article Solutions: COMPOUND A, COMPOUND B and COMPOUND C stock solutions at 10 mM were prepared in dimethyl sulfoxide (DMSO). Further dilution with DMSO was made to prepare 2.0 mM. The working solutions of 50 μM was prepared with 20% MeOH/water. […] Prior to use, the stock solutions were brought to room temperature and thoroughly mixed and prepared same as described above.
# Incubations were conducted in 96-well plate format. The time points defined for this study are 0, 5, 15, 30 and 60 minutes.
# An appropriate volume of plasma from test species were added to a 96-deep well plate, and COMPOUND A, COMPOUND B and COMPOUND C working solution was spiked into the plasma in duplicate to achieve a final concentration of 2.0 μM. For positive controls, the rat plasma was spiked with enalapril, the dog plasma spiked with bisacodyl and the human plasma was spiked with propantheline. All spiked plasma sample plates were incubated in a water bath at 37° C. with shaking.
# At the end of each time point, samples were immediately quenched with three volume of cold quenching solution.
# A study was conducted to examine the plasma stability. Test Compounds: COMPOUND D, COMPOUND E, and Viloxazine. Positive controls: Enalapril and Propantheline.
# [3] = Metabolic stability in dog liver S9; type: in vitro ADME, Beagle dog; settings: dog liver S9, 1 μM
# Method: as §1, §2, §3, §4, §5
# [4] = Protein binding in CD-1 mouse plasma (equilibrium dialysis); settings: dialysis conditions; no binding reported
# [5] = Tissue binding in CD-1 mouse brain homogenate (equilibrium dialysis); settings: 2 μM
# [6] = Metabolic stability in human intestinal homogenate; type: in vitro ADME; settings: human intestinal homogenate, 1 μM
# Method: Incubation Buffer (PBK): 50 mM potassium phosphate buffer (PBK) was prepared from 1 M potassium phosphate buffer, pH 7.2. […] The dilution of 1 mM intermediate was prepared from 10 mM stock with 90% methanol/water, then […] working solutions were prepared by diluting the 1 mM intermediates with 50 mM PBK. […] Prior to use, the stock solutions were brought to room temperature and thoroughly mixed. […] Cofactors Solutions: the cofactor solution was made at 10 mM of NADPH (nicotinamide-adenine dinucleotide phosphate, reduced form) in 50 mM PBK buffer.
# The incubation was carried out in 96-well plates. The intestinal homogenate mixture solution was added to 96-well plates (80 μL/well) in duplicate. […] Reaction was initiated by adding cofactor solution at 10 µL/well. The plates were incubated at 37° C. in a water bath with shaking. […] The final organic solvent content in the incubation was ≤1%.
# At specified time points, i.e., 5, 10, 20, 30 and 60 minutes, NCF60 (no cofactor at 60 min, without adding NADPH replaced with 50 mM PBK buffer) reaction was stopped by adding three volumes of stop solution. The time zero (To) samples were prepared by adding three volumes of stop solution to intestinal homogenate samples, followed by addition of test article or control, and cofactor solution 10 μL/well.
# Subsequently, 100 μL of supernatant was removed from each well, diluted with 100 μL pure water and analyzed by LC/MS/MS.
# A study was conducted to examine the metabolic stability. […] Positive controls: 7-hydroxycoumarin and Testosterone.
# [7] = 80 mg/kg PO
# [8] = mouse brain homogenate, 4 hr dialysis (COMPOUND A 1 hr)
smiles,measurement,setting,value
CCOc1ccccc1OC[C@@H]1CN(C(=O)OC(OC(=O)[C@@H](N)C(C)C)C(C)C)CCO1 (stereo partly shown) [COMPOUND B],% Remaining,[1]; 0 min,100%
same,Analyte Peak area/IS Peak area Mean × 100 (n = 2),[1]; 0 min,8.22
same,% Remaining,[1]; 5 min,14%
same,Analyte Peak area/IS Peak area Mean × 100 (n = 2),[1]; 5 min,1.12
same,% Remaining,[1]; 10 min,12%
same,Analyte Peak area/IS Peak area Mean × 100 (n = 2),[1]; 10 min,0.973
same,% Remaining,[1]; 20 min,4.2%
same,Analyte Peak area/IS Peak area Mean × 100 (n = 2),[1]; 20 min,0.342
same,% Remaining,[1]; 30 min,1.6%
same,Analyte Peak area/IS Peak area Mean × 100 (n = 2),[1]; 30 min,0.131
same,% Remaining,[1]; 60 min,0.24% and 0.2%
same,Analyte Peak area/IS Peak area Mean × 100 (n = 2),[1]; 60 min,0.020
same,% Remaining,"[1]; NCF60 (no cofactors, 60 min)",1.2%
same,Analyte Peak area/IS Peak area Mean × 100 (n = 2),"[1]; NCF60 (no cofactors, 60 min)",0.099
same,half-life at 1 μM,[1]; pH 7.2,7.74 min
same,microsomal CLint at 1 μM,"[1]; pH 7.2, read-out: CLint(LS9)",179 µL/min/mg
same,half-life at 2 μM,[2],> 187 min
same,% Remaining,[2]; 0 min,100%
same,Analyte Peak area/IS Peak area Mean (N = 2),[2]; 0 min,1.90
same,% Remaining,[2]; 5 min,90.6%
same,Analyte Peak area/IS Peak area Mean (N = 2),[2]; 5 min,1.72
same,% Remaining,[2]; 15 min,94.5%
same,Analyte Peak area/IS Peak area Mean (N = 2),[2]; 15 min,1.79
same,% Remaining,[2]; 30 min,87.1%
same,Analyte Peak area/IS Peak area Mean (N = 2),[2]; 30 min,1.65
same,% Remaining,[2]; 60 min,91.5%
same,Analyte Peak area/IS Peak area Mean (N = 2),[2]; 60 min,1.73
same,half-life at 1 μM,"[3]; Beagle, pH 7.2",7.3 min
same,microsomal CLint at 1 μM,"[3]; Beagle, pH 7.2, read-out: CLint(LS9)",190 µL/min/mg
same,% Remaining,[3]; 0 min,100%
same,Analyte Peak area/IS Peak area Mean × 100 (n = 2),[3]; 0 min,7.78
same,% Remaining,[3]; 5 min,2.9%
same,Analyte Peak area/IS Peak area Mean × 100 (n = 2),[3]; 5 min,0.226
same,% Remaining,[3]; 10 min,4.0%
same,Analyte Peak area/IS Peak area Mean × 100 (n = 2),[3]; 10 min,0.309
same,% Remaining,[3]; 20 min,2.1%
same,Analyte Peak area/IS Peak area Mean × 100 (n = 2),[3]; 20 min,0.166
same,% Remaining,[3]; 30 min,0.5%
same,Analyte Peak area/IS Peak area Mean × 100 (n = 2),[3]; 30 min,0.035
same,% Remaining,[3]; 60 min,0.09% and 0.1%
same,Analyte Peak area/IS Peak area Mean × 100 (n = 2),[3]; 60 min,0.007
same,% Remaining,"[3]; NCF60 (no cofactors, 60 min)",0.0%
same,Analyte Peak area/IS Peak area Mean × 100 (n = 2),"[3]; NCF60 (no cofactors, 60 min)",0.000
same,stability in the mouse plasma,[4],instability
same,stability in mouse brain homogenate,[5]; dialysis conditions,unstable
same,% Unbound Experimental,"[5]; mouse brain homogenate, 4 hr",15.5%
same,Analyte Peak area/IS Peak area CD (brain homogenate side),[5]; [8],0.009 and 0.010
same,Analyte Peak area/IS Peak area CR (buffer side),[5]; [8],0.001 and 0.002
same,Analyte Peak area/IS Peak area Co (time zero),"[5]; mouse brain homogenate, time zero",0.057 and 0.059 and 0.064
same,% Remaining,[6]; 0 min,100%
same,Analyte Peak area/IS Peak area Mean (n = 2),[6]; 0 min,0.275
same,% Remaining,[6]; 5 min,7.3%
same,Analyte Peak area/IS Peak area Mean (n = 2),[6]; 5 min,0.020
same,% Remaining,[6]; 10 min,7.1%
same,Analyte Peak area/IS Peak area Mean (n = 2),[6]; 10 min,0.020
same,% Remaining,[6]; 20 min,6.1%
same,Analyte Peak area/IS Peak area Mean (n = 2),[6]; 20 min,0.017
same,% Remaining,[6]; 30 min,2.7%
same,Analyte Peak area/IS Peak area Mean (n = 2),[6]; 30 min,0.007
same,% Remaining,[6]; 60 min,0.57%
same,Analyte Peak area/IS Peak area Mean (n = 2),[6]; 60 min,0.002
same,% Remaining,[6]; NCF60 (no cofactor at 60 min),0.8%
same,Analyte Peak area/IS Peak area Mean (n = 2),[6]; NCF60 (no cofactor at 60 min),0.002
same,half-life at 1 μM,[6]; pH 7.2,10.3 min
same,microsomal CLint at 1 μM,"[6]; pH 7.2, read-out: CLint(HIH)",135 µL/min/mg
same,Clinical observation (tolerability),[7]; beagle dogs,well tolerated
same,plasma concentration of the analog itself,[7]; LLOQ 3.0 ng/mL,mostly below the LLOQ
